Reference: patent publication US4758586A, “Indolyl compounds and hyposensitivity use thereof” (USV Pharmaceutical Corp., priority 1986, dated 1988)

Legend:
[1] = biological target: T1, 5-lipoxygenase (Rattus norvegicus, UniProt P12527); experiment: Protocol for detecting inhibitors of the lipoxygenase pathway (5-HETE formation in rat neutrophils); type: cell-based; conditions: rat PMN, [14C]-arachidonic acid + A23187, 5-HETE; read-out: LOX, (RAT PMN) I50
T1 construct: A suspension of rat neutrophils in buffer; endogenous in cells; host or cells: rat neutrophils (PMN)
T1 sequence (P12527 1-673): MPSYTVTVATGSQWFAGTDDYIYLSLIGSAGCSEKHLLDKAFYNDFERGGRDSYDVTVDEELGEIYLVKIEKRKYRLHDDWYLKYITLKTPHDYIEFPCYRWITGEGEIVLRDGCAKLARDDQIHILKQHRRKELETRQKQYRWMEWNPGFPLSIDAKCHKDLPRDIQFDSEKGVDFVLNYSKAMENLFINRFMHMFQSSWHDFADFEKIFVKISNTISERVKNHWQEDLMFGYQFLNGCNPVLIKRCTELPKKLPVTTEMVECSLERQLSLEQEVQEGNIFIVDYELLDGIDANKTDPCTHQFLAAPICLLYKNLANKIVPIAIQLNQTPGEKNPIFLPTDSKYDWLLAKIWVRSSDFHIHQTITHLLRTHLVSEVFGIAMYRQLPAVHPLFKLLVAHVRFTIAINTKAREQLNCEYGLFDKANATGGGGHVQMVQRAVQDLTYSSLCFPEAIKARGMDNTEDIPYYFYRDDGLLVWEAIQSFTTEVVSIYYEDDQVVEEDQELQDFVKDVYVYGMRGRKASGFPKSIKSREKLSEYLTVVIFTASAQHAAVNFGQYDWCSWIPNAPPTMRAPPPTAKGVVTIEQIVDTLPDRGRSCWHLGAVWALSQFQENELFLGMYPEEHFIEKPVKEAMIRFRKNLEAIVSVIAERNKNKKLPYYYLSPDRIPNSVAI
Experimental: Protocol for Detecting Inhibitors of the Lipoxygenase Pathway
A suspension of rat neutrophils in buffer is incubated for 3 minutes at 30° C. with [^14 C]-arachidonic acid (AA) and Calcium Ionophore A23187. Citric acid (2M) is used to quench the reaction. Following the addition of a trace amount of (^3 H)-5-HETE together with an excess of unlabeled 5-HETE to each tube, the mixture is extracted with chloroform/methanol. The organic layer is washed with dilute acid and an aliquot is transferred to glass tubes and dried. The residue is dissolved in a small volume of chloroform and an aliquot is spotted on silica get TLC sheets, which are developed with an ethyl acetate/isooctane/water acetic acid solvent system. The 5-HETE spots are visualized with iodine, cut out and placed in scintillation vials for counting. After adjusting for the extraction efficiency, the amount (pmole) of [^14 C]-5-HETE in each of the tubes is quantitated. The net pmoles of 5-HETE are obtained by subtracting the pmoles of 5-HETE in the tubes containing […]. The ability of the test compounds to modulate the activity of this enzyme is determined by a decrease or increase in the net amount of 5-HETE produced.

[2] = biological target: T2, Phospholipase A2 (PLA2) (Rattus norvegicus, UniProt P14423); experiment: In vitro assay for inhibitors of Phospholipase A2 (PLA2) from rat platelets; type: biochemical; conditions: pH 7.2, 37° C.; read-out: PLA2, I50
T2 construct: obtained by aggregation of purified rat platelets; from tissue; host or cells: rat platelets (enzyme obtained by aggregation)
T2 sequence (P14423 22-146): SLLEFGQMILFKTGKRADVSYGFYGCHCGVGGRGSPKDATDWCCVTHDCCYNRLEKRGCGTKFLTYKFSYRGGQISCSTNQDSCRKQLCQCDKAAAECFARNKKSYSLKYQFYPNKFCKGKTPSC
From the text: B. In Vitro Assay For Inhibitors of Phospholipase A2 Assayed at pH 7.0 (PLA2)
The PLA2 employed in this screen is obtained by aggregation of purified rat platelets. In the enzyme assay phosphatidylcholine having ^14 C-labeled palmitate residues at R1 and R2 is employed as substrate. PLA2 acts by cleaving the R2 fatty acid ester bond yielding free fatty acid and lysophosphatidyl choline as follows: [drawing 19]
Following completion of the reaction, the assay medium is acidified and extracted with hexane, which takes up unreacted substrate and free fatty acid product. The hexane extract is passed over a short silica column which retains 99% of the phosphatidyl choline. The ^14 C-labeled palmitic acid is not retained (90% recovery in eluate) and is collected directly in scintillation counting vials. The released palmitic acid is conveniently quantitated by liquid scintillation spectrometry.
The compounds were tested at 100 uM in a buffer containing 0.3 mM unlabeled phosphatidylcholine (PC), 20-30,000 cpm of ^14 C(CPC), […], 1 mM CaCl2 and 50 mM tris-HCl adjusted to pH 7.2 with 1N NaOH. […] The temperature of the buffer was maintained at a temperature of 37° C. The reaction was initiated by addition of the enzyme and it was terminated 30 minutes later by the addition of […] of 1N HCl.
Following acidification, the samples were extracted with 2 ml of 2-propanol and 2 ml of hexane, vortexed and allowed to stand until the phases separated. Free fatty acids (FFA) and some unreacted substrate were taken up in the isopropanol-saturated hexane. The hexane phase of the extraction mixture was transferred to a short silica gel column which retained […] but not the FFA. The column effluent was collected directly in scintillation vials. The columns were washed once with an additional 2 ml of hexane. The radio labeled FFA were quantitated by liquid scintillation spectrometry.

CCC(=CC=Cc1cn(Cc2ccccc2)c2ccccc12)C(=O)O [Example 9, 5-(1-Benzylindol-3-yl)-2-Ethyl-2,4-Pentadienoic Acid]
IC50 [1]: 2.3 µM | IC50 [2]: 47 µM
